In patent publication US20250179025A1, “CRYSTALLINE FORM OF DAROLUTAMIDE” (QUÍMICA SINTÉTICA, S.A., priority 2022, published 2025):
≈ marks a conversion by molar mass, not a printed value. Like-named read-outs stand apart in the source and are kept apart here. Values belong to the molecule of their own block, whether it stands above or below them.

What was measured:
[1] = Determination of specific surface area (SSA), multi-point nitrogen adsorption BET; type: physicochemical; details: samples vacuum dried overnight at 45° C.; relative pressure 0.05-0.3 p/p0; eleven linear points
Description: The term “about” includes the range of experimental errors, which can normally occur performing a measurement, e.g. ±5% or ±2% or ±1%. Sometimes, such a range can lie within the experimental error, typical of standard methods used for the measurement and/or determination of a given value or range. Particularly, the measurement uncertainty for the Multi-Point B.E.T. specific surface area parameter is equal to 15% for a SSA value greater than 2 m^2/g, and 20% for a SSA less than 2 m^2/g. It is expressed as extended uncertainty obtained by multiplying standard uncertainty by the coverage factor k equal to 2, corresponding to confidence level of about 95%. The uncertainty is related to the method of analysis and obtained as percent value from the analysis of a representative group of samples in the measurement range of the instrument.
Unless otherwise indicated, the data relative to the peaks in the XRPD pattern are meant within the common uncertainty due to the instrument measurement, typically ±0.2 degrees 2θ, when collected with the Kα radiation of copper (λ=1.5419 Å) at room temperature. The present invention provides, in one aspect, a new form of N-[(2S)-1-[3-(3-chloro-4-cyanophenyl)-1H-pyrazol-1-yl]-propan-2-yl]-5-(1-hydroxyethyl)-1H-pyrazole-3-carboxamide (darolutamide), herein called nanocrystalline form or NC form or Form NC, said nanocrystalline form being characterized by having specific surface area (SSA) in the range from about 40 m^2/g to about 150 m^2/g, preferably from about 50 m^2/g to about 135 m^2/g, more preferably from about 60 m^2/g to about 135 m^2/g analyzed using the multi-point nitrogen adsorption technique based on the Brunauer, Emmett and Teller (BET) theory, for example using TriStar (II) automated gas adsorption analyzer, (Micromeritics, Inc.). The samples are suitably vacuum dried overnight at 45° C. The volumetric method can be used at the relative pressure range of 0.05-0.3 p/p0 as reported in the experimental part. Specific surface area is an important physical property for an active pharmaceutical ingredient. This parameter can greatly influence the process of preparation of drugs, such as filtration, purification, blending, tableting as well as the characteristics of the active pharmaceutical ingredient especially its dissolution rate and, in turn, its bio-availability as generally known in the art, e.g. from Kyung Rok Chu et al. Effect of particle size on the dissolution behaviours of poorly water-soluble drugs, Arch. Pharm. Res., 2012 July, 35(7), 1187-95, DOI 10.1007/s12272-012-0709-3.
The specific surface area was measured using the multi-point nitrogen adsorption technique based on the Brunauer, Emmett and Teller (BET) theory using TriStar (II) automated gas adsorption analyzer (Micromeritics, Inc.). All the samples were dried under vacuum overnight hours at 45° C. The volumetric method was applied at the relative pressure range 0.05-0.3 p/p^0, and the Specific Surface Area values were calculated in said pressure range using “Multi-Point BET” calculation method based on eleven linear points.

[2] = Stability study at 40° C. and 75% RH (HPLC purity, XRPD); type: physicochemical; details: double PE bag in HDPE bottle, 1, 3, 6 and 12 months
Experimental: 5 aliquots of about 1 g of nanocrystalline form of present invention were stored at the following conditions wherein RH is referred to relative humidity: • 40° C. and 75% RH, double PE bag in HDPE bottle
The sample were analysed before the storage (To), after 1 month, 3 months, 6 months and 12 months using high performance chromatography (HPLC) method to control the purity and X-ray powder diffractogram (XRPD) to evaluate any change in crystalline form.

[3] = values reported in WO 2018/162793 or by its applicant in annex 1 during European prosecution; cited from earlier work
[4] = poorly soluble in the physiological pH range; cited from earlier work

Specific Surface Area (SSA) Multi-point BET [1]: 66.6 m^2/g
Structure (SMILES): CC(O)c1cc(C(=O)N[C@@H](C)Cn2ccc(-c3ccc(C#N)c(Cl)c3)n2)[nH]n1 (stereo partly drawn) [Example 11, darolutamide]

Specific Surface Area (SSA) Multi-point BET [1]: 46.0 m^2/g
Structure (SMILES): CC(O)c1cc(C(=O)N[C@@H](C)Cn2ccc(-c3ccc(C#N)c(Cl)c3)n2)[nH]n1 (stereo partly drawn) [Example 23, darolutamide]

Specific Surface Area (SSA) Multi-point BET [1]: 121.6 m^2/g
Structure (SMILES): CC(O)c1cc(C(=O)N[C@@H](C)Cn2ccc(-c3ccc(C#N)c(Cl)c3)n2)[nH]n1 (stereo partly drawn) [Example 10, darolutamide]

solubility concentration (5 min): 0.12 to 0.16 mg/mL
Structure (SMILES): CC(O)c1cc(C(=O)N[C@@H](C)Cn2ccc(-c3ccc(C#N)c(Cl)c3)n2)[nH]n1 (stereo partly drawn) [nanocrystalline form, N-[(2S)-1-[3-(3-chloro-4-cyanophenyl)-1H-pyrazol-1-yl]-propan-2-yl]-5-(1-hydroxyethyl)-1H-pyrazole-3-carboxamide]
chemical stability: purity by HPLC versus initial profile at T0 [2]: does not present a significant worsening of the purity
physical stability: change in crystalline form by XRPD [2]: no signs of transformation into a different crystalline form

solubility concentration (5 min): 0.02 mg/mL (≈ 50.1 µM)
Structure (SMILES): CC(O)c1cc(C(=O)N[C@@H](C)Cn2ccc(-c3ccc(C#N)c(Cl)c3)n2)[nH]n1 (stereo partly drawn) [Form I, darolutamide]
Specific Surface Area (SSA) Multi-point BET [3]: 22.1 m^2/g

Structure (SMILES): CC(O)c1cc(C(=O)N[C@@H](C)Cn2ccc(-c3ccc(C#N)c(Cl)c3)n2)[nH]n1 (stereo partly drawn) [Crystalline rounded particles sample B unmilled] [darolutamide]
Specific Surface Area (SSA) Multi-point BET [3]: 12 m^2/g

Concentration of Darolutamide in saturated solution (0 min, pH 1): 0.000 mg/mL
Concentration of Darolutamide in saturated solution (0 min, pH 7.5): 0.000 mg/mL
Concentration of Darolutamide in saturated solution (5 min, pH 1): 0.117 mg/mL
Concentration of Darolutamide in saturated solution (5 min, pH 7.5): 0.128 mg/mL
Concentration of Darolutamide in saturated solution (10 min, pH 1): 0.126 mg/mL
Concentration of Darolutamide in saturated solution (10 min, pH 7.5): 0.132 mg/mL
Concentration of Darolutamide in saturated solution (60 min, pH 1): 0.113 mg/mL
Concentration of Darolutamide in saturated solution (60 min, pH 7.5): 0.109 mg/mL
Specific Surface Area (SSA) Multi-point BET [1]: 66.8 m^2/g
Structure (SMILES): CC(O)c1cc(C(=O)N[C@@H](C)Cn2ccc(-c3ccc(C#N)c(Cl)c3)n2)[nH]n1 (single isomer, unassigned) [Example 5, darolutamide]

Specific Surface Area (SSA) Multi-point BET [1]: 43.8 m^2/g
Structure (SMILES): CC(O)c1cc(C(=O)N[C@@H](C)Cn2ccc(-c3ccc(C#N)c(Cl)c3)n2)[nH]n1 (stereo partly drawn) [Example 24, darolutamide]

Concentration of Darolutamide in saturated solution (0 min, pH 1): 0.000 mg/mL
Concentration of Darolutamide in saturated solution (0 min, pH 7.5): 0.000 mg/mL
Concentration of Darolutamide in saturated solution (5 min, pH 1): 0.137 mg/mL
Concentration of Darolutamide in saturated solution (5 min, pH 7.5): 0.157 mg/mL
Concentration of Darolutamide in saturated solution (10 min, pH 1): 0.146 mg/mL
Concentration of Darolutamide in saturated solution (10 min, pH 7.5): 0.149 mg/mL
Concentration of Darolutamide in saturated solution (60 min, pH 1): 0.113 mg/mL
Concentration of Darolutamide in saturated solution (60 min, pH 7.5): 0.109 mg/mL
Specific Surface Area (SSA) Multi-point BET [1]: 111.7 m^2/g
Structure (SMILES): CC(O)c1cc(C(=O)N[C@@H](C)Cn2ccc(-c3ccc(C#N)c(Cl)c3)n2)[nH]n1 (single isomer, unassigned) [Example 4, darolutamide]

Concentration of Darolutamide in saturated solution (0 min, pH 1): 0.000 mg/mL
Concentration of Darolutamide in saturated solution (0 min, pH 7.5): 0.000 mg/mL
Concentration of Darolutamide in saturated solution (5 min, pH 1): 0.159 mg/mL
Concentration of Darolutamide in saturated solution (5 min, pH 7.5): 0.162 mg/mL
Concentration of Darolutamide in saturated solution (10 min, pH 1): 0.162 mg/mL
Concentration of Darolutamide in saturated solution (10 min, pH 7.5): 0.155 mg/mL
Concentration of Darolutamide in saturated solution (60 min, pH 1): 0.117 mg/mL
Concentration of Darolutamide in saturated solution (60 min, pH 7.5): 0.132 mg/mL
Specific Surface Area (SSA) Multi-point BET [1]: 134.0 m^2/g
Structure (SMILES): CC(O)c1cc(C(=O)N[C@@H](C)Cn2ccc(-c3ccc(C#N)c(Cl)c3)n2)[nH]n1 (single isomer, unassigned) [Example 3, darolutamide]

solubility concentration (5 min): 0.02 mg/mL
Structure (SMILES): CC(O)c1cc(C(=O)N[C@@H](C)Cn2ccc(-c3ccc(C#N)c(Cl)c3)n2)[nH]n1 (stereo partly drawn) [crystalline rounded particles, darolutamide]

Specific Surface Area (SSA) Multi-point BET [1]: 34.4 m^2/g
Structure (SMILES): CC(O)c1cc(C(=O)N[C@@H](C)Cn2ccc(-c3ccc(C#N)c(Cl)c3)n2)[nH]n1 (stereo partly drawn) [Comparative example 1c, darolutamide]

Structure (SMILES): CC(O)c1cc(C(=O)N[C@@H](C)Cn2ccc(-c3ccc(C#N)c(Cl)c3)n2)[nH]n1 (stereo partly drawn) [darolutamide, N-[(2S)-1-[3-(3-chloro-4-cyanophenyl)-1H-pyrazol-1-yl]-propan-2-yl]-5-(1-hydroxyethyl)-1H-pyrazole-3-carboxamide]
Biopharmaceutics Classification System (BCS) class [4]: class II

Specific Surface Area (SSA) Multi-point BET [1]: 29.5 m^2/g
Structure (SMILES): CC(O)c1cc(C(=O)N[C@@H](C)Cn2ccc(-c3ccc(C#N)c(Cl)c3)n2)[nH]n1 (stereo partly drawn) [Comparative example 1b, darolutamide]

Concentration of Darolutamide in saturated solution (0 min, pH 1): 0.000 mg/mL
Concentration of Darolutamide in saturated solution (0 min, pH 7.5): 0.000 mg/mL
Concentration of Darolutamide in saturated solution (5 min, pH 1): 0.023 mg/mL
Concentration of Darolutamide in saturated solution (5 min, pH 7.5): 0.022 mg/mL
Concentration of Darolutamide in saturated solution (10 min, pH 1): 0.022 mg/mL
Concentration of Darolutamide in saturated solution (10 min, pH 7.5): 0.018 mg/mL
Concentration of Darolutamide in saturated solution (60 min, pH 1): 0.022 mg/mL
Concentration of Darolutamide in saturated solution (60 min, pH 7.5): 0.021 mg/mL
Specific Surface Area (SSA) Multi-point BET [1]: 11.6 m^2/g
Structure (SMILES): CC(O)c1cc(C(=O)N[C@@H](C)Cn2ccc(-c3ccc(C#N)c(Cl)c3)n2)[nH]n1 (stereo partly drawn) [Comparative example 2, darolutamide]

Structure (SMILES): CC(O)c1cc(C(=O)N[C@@H](C)Cn2ccc(-c3ccc(C#N)c(Cl)c3)n2)[nH]n1 (stereo partly drawn) [Crystalline rounded particles sample A unmilled] [darolutamide]
Specific Surface Area (SSA) Multi-point BET [3]: 13 m^2/g

Concentration of Darolutamide in saturated solution (0 min, pH 1): 0.000 mg/mL
Concentration of Darolutamide in saturated solution (0 min, pH 7.5): 0.000 mg/mL
Concentration of Darolutamide in saturated solution (5 min, pH 1): 0.020 mg/mL
Concentration of Darolutamide in saturated solution (5 min, pH 7.5): 0.020 mg/mL
Concentration of Darolutamide in saturated solution (10 min, pH 1): 0.020 mg/mL
Concentration of Darolutamide in saturated solution (10 min, pH 7.5): 0.021 mg/mL
Concentration of Darolutamide in saturated solution (60 min, pH 1): 0.017 mg/mL
Concentration of Darolutamide in saturated solution (60 min, pH 7.5): 0.019 mg/mL
Specific Surface Area (SSA) Multi-point BET [1]: 26.6 m^2/g
Structure (SMILES): CC(O)c1cc(C(=O)N[C@@H](C)Cn2ccc(-c3ccc(C#N)c(Cl)c3)n2)[nH]n1 (stereo partly drawn) [Comparative example 1a, darolutamide]
